Measurements as given in US9809583B2 (priority 2014, dated 2017).

Molecular target: androgen receptor (hAR) (Homo sapiens (Human), UniProt P10275)
Test: Test of transcriptional activity (hAR / ARE-Luc dual-luciferase assay in CHO cells)
Type: cell-based
Details: CHO cells with hAR and ARE-Luc, 24 hours; 10 nM DHT = 100%; read-out: EC50 [nM] (mean ± SE)
Method: In order to examine the transcriptional activity of the agonists of the present invention, the following in-vitro experiment was performed. CHO (Chinese hamster ovary) cell line (ATCC, #CCL-61) was seeded in a 96-well plate at a density of 1.5×10^4 cells/well, and cultured for 24 hours. Then, a plasmid hAR and plasmid ARE-Luc-mixed medium was added thereto. The transfected cell line was treated with 0.1˜10,000 nM of SARM derivatives, and then allowed to react for 24 hours.

androgen receptor (hAR), sequence (P10275 whole entry): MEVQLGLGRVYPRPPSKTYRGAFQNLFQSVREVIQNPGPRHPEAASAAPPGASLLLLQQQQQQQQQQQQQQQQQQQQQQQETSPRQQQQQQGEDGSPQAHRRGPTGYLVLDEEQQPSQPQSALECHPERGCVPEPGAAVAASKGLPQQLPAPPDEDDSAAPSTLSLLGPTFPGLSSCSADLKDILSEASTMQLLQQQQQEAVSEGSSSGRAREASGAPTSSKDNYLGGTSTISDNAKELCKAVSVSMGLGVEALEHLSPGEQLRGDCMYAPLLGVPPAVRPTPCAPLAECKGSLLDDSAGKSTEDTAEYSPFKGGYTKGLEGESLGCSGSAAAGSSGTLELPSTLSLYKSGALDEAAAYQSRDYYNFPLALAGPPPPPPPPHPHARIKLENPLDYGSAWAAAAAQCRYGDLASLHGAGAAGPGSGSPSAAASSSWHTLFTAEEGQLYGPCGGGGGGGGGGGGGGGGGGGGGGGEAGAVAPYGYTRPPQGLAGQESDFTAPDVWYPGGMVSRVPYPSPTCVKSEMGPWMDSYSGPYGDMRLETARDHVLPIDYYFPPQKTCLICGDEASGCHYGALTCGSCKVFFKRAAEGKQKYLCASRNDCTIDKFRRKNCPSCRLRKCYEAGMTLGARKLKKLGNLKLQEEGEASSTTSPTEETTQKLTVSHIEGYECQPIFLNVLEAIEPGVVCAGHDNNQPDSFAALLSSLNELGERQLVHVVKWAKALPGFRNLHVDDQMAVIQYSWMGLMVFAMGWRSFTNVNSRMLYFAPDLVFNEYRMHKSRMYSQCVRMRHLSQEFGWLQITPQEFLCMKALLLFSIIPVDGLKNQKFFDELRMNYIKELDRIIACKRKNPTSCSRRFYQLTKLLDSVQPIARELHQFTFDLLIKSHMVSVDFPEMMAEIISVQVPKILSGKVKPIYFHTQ

Compound | EC50
Cc1cc(N2C[C@@H](COc3ccc(C#N)cc3)O[C@@H]2C(F)(F)F)ccc1[N+](=O)[O-] [Example 53, 4-(((2R,5S)-3-(3-methyl-4-nitrophenyl)-2-(trifluoromethyl)oxazolidin-5-yl)methoxy)benzonitrile] | 2.5 ± 0.7 nM
CC(=O)Nc1ccc(OC[C@@H]2CN(c3ccc([N+](=O)[O-])c(C)c3)[C@@H](C(F)(F)F)O2)cc1 [Example 54, N-(4-(((2R,5S)-3-(3-methyl-4-nitrophenyl)-2-(trifluoromethyl)oxazolidin-5-yl)methoxy)phenyl)acetamide] | 0.86 nM
Cc1cc(N2C[C@@H](COc3ccc(C#N)nc3)O[C@@H]2C(F)(F)F)ccc1[N+](=O)[O-] [Example 55, 5-(((2R,5S)-3-(3-methyl-4-nitrophenyl)-2-(trifluoromethyl)oxazolidin-5-yl)methoxy)picolinonitrile] | 4.49 nM
N#Cc1ccc(OC[C@@H]2CN(c3ccc(Cl)c(Cl)c3)[C@@H](C(F)(F)F)O2)cc1 [Example 63, 4-(((2R,5S)-3-(3,4-dichlorophenyl)-2-(trifluoromethyl)oxazolidin-5-yl)methoxy)benzonitrile] | 36.3 nM
N#Cc1ccc(OC[C@@H]2CN(c3ccc([N+](=O)[O-])c(C(F)(F)F)c3)[C@@H](C(F)(F)F)O2)cc1 [Example 64, 4-(((2R,5S)-3-(4-nitro-3-(trifluoromethyl)phenyl)-2-(trifluoromethyl)oxazolidin-5-yl)methoxy)benzonitrile] | 34 nM
N#Cc1ccc(OC[C@@H]2CN(c3ccc([N+](=O)[O-])c(C(F)(F)F)c3)[C@@H](C(F)(F)F)O2)cn1 [Example 65, 5-(((2R,5S)-3-(4-nitro-3-(trifluoromethyl)phenyl)-2-(trifluoromethyl)oxazolidin-5-yl)methoxy)picolinonitrile] | 59.5 nM
O=[N+]([O-])c1ccc(N2C[C@@H](COc3ccncc3)O[C@@H]2C(F)(F)F)cc1C(F)(F)F [Example 66, (2R,5S)-3-(4-nitro-3-(trifluoromethyl)phenyl)-5-((pyridin-4-yloxy)methyl)-2-(trifluoromethyl)oxazolidine] | 19.9 nM

Same assay, conditions: EC50 [nM] (mean ± SE), CHO cells with hAR and ARE-Luc, 24 hours; 10 nM DHT = 100%

Compound | EC50
N#Cc1ccc(N2C[C@@H](COc3ccc(N)cc3)O[C@@H]2C(F)(F)F)cc1C(F)(F)F [Example 14, 4-((2R,5S)-5-((4-aminophenoxy)methyl)-2-(trifluoromethyl)oxazolidin-3-yl)-2-(trifluoromethyl)benzonitrile] | 111 nM
N#Cc1ccc(N2C[C@@H](COc3ccc(NC(N)=O)cc3)O[C@@H]2C(F)(F)F)cc1C(F)(F)F [Example 15, 1-(4-(((2R,5S)-3-(4-cyano-3-(trifluoromethyl)phenyl)-2-(trifluoromethyl)oxazolidin-5-yl)methoxy)phenyl)urea] | 15.7 nM
CNC(=O)Nc1ccc(OC[C@@H]2CN(c3ccc(C#N)c(C(F)(F)F)c3)[C@@H](C(F)(F)F)O2)cc1 [Example 16, 1-(4-(((2R,5S)-3-(4-cyano-3-(trifluoromethyl)phenyl)-2-(trifluoromethyl)oxazolidin-5-yl)methoxy)phenyl)-3-methylurea] | 21.3 nM
N#Cc1ccc(N2C[C@@H](COc3ccc(N4CCCC4=O)cc3)O[C@@H]2C(F)(F)F)cc1C(F)(F)F [Example 17, 4-((2R,5S)-5-((4-(2-oxopyrrolidin-1-yl)phenoxy)methyl)-2-(trifluoromethyl)oxazolidin-3-yl)-2-(trifluoromethyl)benzonitrile] | 24 nM
N#Cc1ccc(N2C[C@@H](COc3ccc(-c4nnco4)cc3)O[C@@H]2C(F)(F)F)cc1C(F)(F)F [Example 18, 4-((2R,5S)-5-((4-(1,3,4-oxadiazol-2-yl)phenoxy)methyl)-2-(trifluoromethyl)oxazolidin-3-yl)-2-(trifluoromethyl)benzonitrile] | 18.6 nM
N#Cc1ccc(N2C[C@@H](COc3ccc(C(F)(F)F)cc3)O[C@@H]2C(F)(F)F)cc1C(F)(F)F [Example 37, 2-(trifluoromethyl)-4-((2R,5S)-2-(trifluoromethyl)-5-((4-(trifluoromethyl)phenoxy)methyl)oxazolidin-3-yl)benzonitrile] | 31.6 nM
N#Cc1ccc(N2C[C@@H](COc3ccc(N4CCOC4=O)cc3)O[C@@H]2C(F)(F)F)cc1C(F)(F)F [Example 38, 4-((2R,5S)-5-((4-(2-oxooxazolidin-3-yl)phenoxy)methyl)-2-(trifluoromethyl)oxazolidin-3-yl)-2-(trifluoromethyl)benzonitrile] | 165 nM
CS(=O)(=O)Nc1ccc(OC[C@@H]2CN(c3ccc(C#N)c(C(F)(F)F)c3)[C@@H](C(F)(F)F)O2)cc1 [Example 39, N-(4-(((2R,5S)-3-(4-cyano-3-(trifluoromethyl)phenyl)-2-(trifluoromethyl)oxazolidin-5-yl)methoxy)phenyl)methanesulfonamide] | 42.6 nM
CN(C)C(=O)Nc1ccc(OC[C@@H]2CN(c3ccc(C#N)c(C(F)(F)F)c3)[C@@H](C(F)(F)F)O2)cc1 [Example 40, 3-(4-(((2R,5S)-3-(4-cyano-3-(trifluoromethyl)phenyl)-2-(trifluoromethyl)oxazolidin-5-yl)methoxy)phenyl)-1,1-dimethylurea] | 438 nM
CCOC(=O)Nc1ccc(OC[C@@H]2CN(c3ccc(C#N)c(C(F)(F)F)c3)[C@@H](C(F)(F)F)O2)cc1 [Example 41, ethyl(4-(((2R,5S)-3-(4-cyano-3-(trifluoromethyl)phenyl)-2-(trifluoromethyl)oxazolidin-5-yl)methoxy)phenyl)carbamate] | 16.2 nM
CC(C)OC(=O)Nc1ccc(OC[C@@H]2CN(c3ccc(C#N)c(C(F)(F)F)c3)[C@@H](C(F)(F)F)O2)cc1 [Example 42, isopropyl (4-(((2R,5S)-3-(4-cyano-3-(trifluoromethyl)phenyl)-2-(trifluoromethyl)oxazolidin-5-yl)methoxy)phenyl)carbamate] | 514 nM
N#Cc1ccc(N2C[C@@H](COc3ccc(NC(=O)Oc4ccccc4)cc3)O[C@@H]2C(F)(F)F)cc1C(F)(F)F [Example 43, phenyl (4-(((2R,5S)-3-(4-cyano-3-(trifluoromethyl)phenyl)-2-(trifluoromethyl)oxazolidin-5-yl)methoxy)phenyl)carbamate] | 21.3 nM
N#Cc1ccc(OC[C@@H]2CN(c3ccc(C#N)c(C(F)(F)F)c3)[C@H](C(F)(F)F)O2)cn1 [Example 45, 5-(((2S,5S)-3-(4-cyano-3-(trifluoromethyl)phenyl)-2-(trifluoromethyl)oxazolidin-5-yl)methoxy)picolinonitrile] | 44.1 nM
N#Cc1cccc(OC[C@@H]2CN(c3ccc(C#N)c(C(F)(F)F)c3)[C@@H](C(F)(F)F)O2)c1 [Example 46, 4-((2R,5S)-5-((3-cyanophenoxy)methyl)-2-(trifluoromethyl)oxazolidin-3-yl)-2-(trifluoromethyl)benzonitrile] | 31.5 nM
N#Cc1ccc(OC[C@@H]2CN(c3ccc(C#N)c(C(F)(F)F)c3)[C@@H]([C@@H](O)C(F)(F)F)O2)cc1 [Example 48, 4-((2R,5S)-5-((4-cyanophenoxy)methyl)-2-((R)-2,2,2-trifluoro-1-hydroxyethyl)oxazolidin-3-yl)-2-(trifluoromethyl)benzonitrile] | 1520 nM
N#Cc1ccc(OC[C@@H]2CN(c3ccc(C#N)c(C(F)(F)F)c3)[C@@H]([C@H](O)C(F)(F)F)O2)cc1 [Example 49, 4-((2R,5S)-5-((4-cyanophenoxy)methyl)-2-((S)-2,2,2-trifluoro-1-hydroxyethyl)oxazolidin-3-yl)-2-(trifluoromethyl)benzonitrile] | 1700 nM
N#Cc1ccc(N2C[C@@H](COc3ccc(NC(=O)CN)cc3)O[C@@H]2C(F)(F)F)cc1C(F)(F)F [Example 50, 2-amino-N-(4-(((2R,5S)-3-(4-cyano-3-(trifluoromethyl)phenyl)-2-(trifluoromethyl)oxazolidin-5-yl)methoxy)phenyl)acetamide 2,2,2-trifluoroacetate] | 15.6 nM
N#Cc1ccc(N2C[C@@H](COc3ccc(NC(=O)[C@@H]4CCCN4)cc3)O[C@@H]2C(F)(F)F)cc1C(F)(F)F [Example 51, (S)-N-(4-(((2R,5S)-3-(4-cyano-3-(trifluoromethyl)phenyl)-2-(trifluoromethyl)oxazolidin-5-yl)methoxy)phenyl)pyrrolidine-2-carboxamide 2,2,2-trifluoroacetate] | 165 nM
N#Cc1ccc(N2C[C@@H](COc3ccc(CC(=O)O)cc3)O[C@@H]2C(F)(F)F)cc1C(F)(F)F [Example 52, 2-(4-(((2R,5S)-3-(4-cyano-3-(trifluoromethyl)phenyl)-2-(trifluoromethyl)oxazolidin-5-yl)methoxy)phenyl)acetic acid] | 759 nM
N#Cc1ccc(N2C[C@@H](COc3ccccc3)O[C@@H]2C(F)(F)F)cc1C(F)(F)F [Example 58, 4-((2R,5S)-5-(phenoxymethyl)-2-(trifluoromethyl)oxazolidin-3-yl)-2-(trifluoromethyl)benzonitrile] | 107 nM
N#Cc1ccc(N2C[C@@H](COc3ccncc3)O[C@@H]2C(F)(F)F)cc1C(F)(F)F [Example 59, 4-((2R,5S)-5-((pyridin-4-yloxy)methyl)-2-(trifluoromethyl)oxazolidin-3-yl)-2-(trifluoromethyl)benzonitrile] | 3.25 nM
N#Cc1ccc(N2C[C@@H](COc3cccnc3)O[C@@H]2C(F)(F)F)cc1C(F)(F)F [Example 60, 4-((2R,5S)-5-((pyridin-3-yloxy)methyl)-2-(trifluoromethyl)oxazolidin-3-yl)-2-(trifluoromethyl)benzonitrile] | 10.4 nM
N#Cc1ccc(N2C[C@@H](COc3ccc(CO)cc3)O[C@@H]2C(F)(F)F)cc1C(F)(F)F [Example 67, 4-((2R,5S)-5-((4-(hydroxymethyl)phenoxy)methyl)-2-(trifluoromethyl)oxazolidin-3-yl)-2-(trifluoromethyl)benzonitrile] | 3.93 nM
